Strand notation (5' to 3'): a small letter for the sugar, then the base; units joined by * are phosphorothioate-linked, units joined directly phosphodiester-linked; [ ] holds rarer units or linkages, { } end groups; capitals alone tell only the bases. e = 2'-O-(2-methoxyethyl) (MOE); [5mC] = 5-methylcytosine; d = 2'-deoxy (DNA)

A word on the % Inhibition: it is the drop in the measured response relative to a control, in per cent. Low readings indicate little suppression, high ones strong suppression.

This series concerns human SMAD7 mRNA. The series is described as follows: Antisense inhibition of human SMAD7 mRNA expression in Hep3B cells by 5-10-5 MOE gapmers, single concentration, electroporation, RT-PCR (Example 1, Study 1 and 2). Format: cell-based. The following applies: for % Inhibition: Study 2, electroporation with 15,000 nM antisense oligonucleotide; for % Inhibition of SMAD7 mRNA: electroporation with 15,000 nM antisense oligonucleotide (Study 2). The gist of the method: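 Readout is percent SMAD7 mRNA inhibition versus untreated cells, measured by qRT-PCR (RTS5062) and corrected for total RNA by RIBOGREEN. Oligonucleotide, 5,000 nM or 15,000 nM, was delivered by electroporation into Hep3B cells at 20,000 per well. RNA was collected about 24 h later.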

Where [1] appears, read: 5-10-5 MOE gapmers targeting SEQ ID NO: 1 and 2.
Setting [2] is: electroporation, 15,000 nM antisense oligonucleotide (Study 2), 5-10-5 MOE gapmers targeting SEQ ID NO: 1 and 2.
The mark [3] stands for this setting: electroporation, 5,000 nM, approximately 24 hours, relative to untreated control cells, gapmers targeting SEQ ID NO: 1 and 2.
Where [4] appears, read: electroporation, 15,000 nM, approximately 24 hours, relative to untreated control cells, gapmers targeting SEQ ID NO: 1 and 2.

As for “771726 (antisense eA*eG*e[5mC]*e[5mC]*eA*dA*dA*dA*d[5mC]*d[5mC]*d[5mC]*dA*dG*dT*d[5mC]*eA*eA*eG*eT*eT) [compound 771726]”, the “% Inhibition” value under setting [1] is given as 19%. “771727 (antisense eA*eA*e[5mC]*eA*eT*dG*dG*d[5mC]*d[5mC]*dT*dT*dT*d[5mC]*dT*dT*eT*eT*e[5mC]*eT*eA) [compound 771727]”: under setting [1], the “% Inhibition” value turned out to be 0%. Turning to “771728 (antisense eA*eA*e[5mC]*eT*eT*dT*dT*d[5mC]*dT*d[5mC]*d[5mC]*d[5mC]*d[5mC]*d[5mC]*dT*eT*eG*eG*eA*eA) [compound 771728]”, under setting [1], the “% Inhibition of SMAD7 mRNA” value was determined as 7%. Besides, the “% inhibition of SMAD7 mRNA expression” value under setting [2] is listed as 1%. As to “771729 (antisense eT*eG*e[5mC]*eT*e[5mC]*d[5mC]*dA*dG*d[5mC]*dT*d[5mC]*d[5mC]*dA*dG*dA*e[5mC]*e[5mC]*eT*eG*eG) [compound 771729]”, under setting [2], the “% inhibition of SMAD7 mRNA expression” value was 35%. On the same count and under the same terms, then “771730 (antisense eA*eA*eT*eG*e[5mC]*d[5mC]*d[5mC]*d[5mC]*d[5mC]*dG*dG*d[5mC]*d[5mC]*dA*d[5mC]*eA*eG*e[5mC]*eA*eG) [compound 771730]”, with 27%.

As to “771731 (antisense eA*eA*eA*eA*e[5mC]*dT*dT*dT*dG*dT*dG*d[5mC]*d[5mC]*dT*dG*eT*eT*eT*e[5mC]*eA) [compound 771731]”, the “% Inhibition” value under setting [1] was 54%. For the same substance, under setting [3], the “% inhibition of SMAD7 mRNA expression” value is reported as 44%. “771735 (antisense eT*eG*eG*eG*eT*d[5mC]*d[5mC]*d[5mC]*dT*d[5mC]*dA*dA*dG*dA*dG*e[5mC]*eT*e[5mC]*eA*e[5mC]) [compound 771735]”: under setting [1], the “% Inhibition” value came to 38%. As for “771736 (antisense eT*eG*e[5mC]*e[5mC]*eA*dG*dA*dT*d[5mC]*dT*d[5mC]*dA*dG*dG*dT*e[5mC]*eA*eA*eG*eA) [compound 771736]”, the “% Inhibition of SMAD7 mRNA” value under setting [1] worked out at 34%. In addition, the “% inhibition of SMAD7 mRNA expression” value under setting [2] is listed as 0%. As to “771738 (antisense eG*eA*eG*e[5mC]*eT*dT*d[5mC]*d[5mC]*dT*dA*dA*dG*dT*dA*d[5mC]*eT*eG*eT*eT*eA) [compound 771738]”, the “% inhibition of SMAD7 mRNA expression” value under setting [2] is 14%. Consider “771739 (antisense eT*eT*eT*eG*eA*dA*dA*dA*d[5mC]*d[5mC]*d[5mC]*dA*dA*d[5mC]*d[5mC]*e[5mC]*eT*eG*eG*eG) [compound 771739]”, for which the “% Inhibition” value under setting [1] is listed as 33%. The “% inhibition of SMAD7 mRNA expression” value under setting [3] was 22%. For the substance “771740 (antisense eG*e[5mC]*e[5mC]*eA*e[5mC]*dT*d[5mC]*d[5mC]*dT*dG*dA*d[5mC]*dT*d[5mC]*dA*e[5mC]*eG*e[5mC]*eA*eA) [compound 771740]”, the “% Inhibition” value under setting [1] was determined as 20%. Regarding “771741 (antisense eG*eG*eT*e[5mC]*eT*d[5mC]*dA*d[5mC]*d[5mC]*dT*dT*dA*dG*dG*d[5mC]*e[5mC]*eT*eG*eT*eG) [compound 771741]”, the “% inhibition of SMAD7 mRNA expression” value under setting [4] amounted to 53%. As to “771743 (antisense eG*e[5mC]*e[5mC]*eA*eT*dA*d[5mC]*d[5mC]*dT*d[5mC]*d[5mC]*dA*dT*d[5mC]*dT*e[5mC]*eT*e[5mC]*eA*e[5mC]) [compound 771743]”, the “% Inhibition” value under setting [1] was found to be 0%.

Consider “771744 (antisense eG*eG*e[5mC]*eT*eA*dT*dT*d[5mC]*d[5mC]*d[5mC]*dA*dA*dG*dA*dG*eT*e[5mC]*e[5mC]*eA*eG) [compound 771744]”, for which, under setting [1], the “% Inhibition of SMAD7 mRNA” value came out at 40%. The “% inhibition of SMAD7 mRNA expression” value under setting [2] stood at 23%. For the substance “771745 (antisense eG*eT*eG*eA*eA*dG*dA*dA*dG*d[5mC]*dA*dA*dA*dG*dT*eA*eT*eA*e[5mC]*e[5mC]) [compound 771745]”, the “% inhibition of SMAD7 mRNA expression” value under setting [2] is reported as 24%.

As for “771746 (antisense eA*eA*eG*e[5mC]*e[5mC]*dG*dG*dG*d[5mC]*dA*dT*d[5mC]*dT*d[5mC]*dA*eG*eA*eG*e[5mC]*eA) [compound 771746]”, the “% inhibition of SMAD7 mRNA expression” value under setting [2] was found to be 22%. In the case of “771747 (antisense eG*eT*eG*eT*eG*dT*dT*dT*d[5mC]*dA*dA*dA*dG*dG*dA*eA*eA*eA*eG*e[5mC]) [compound 771747]”, the “% Inhibition” value under setting [1] turned out to be 10%. The “% inhibition of SMAD7 mRNA expression” value under setting [3] is given as 2%. Take “771748 (antisense eA*e[5mC]*e[5mC]*e[5mC]*e[5mC]*d[5mC]*dA*d[5mC]*dA*dT*dT*dA*dA*dA*d[5mC]*eA*eT*eA*eA*eT) [compound 771748]”: the “% Inhibition” value under setting [1] is reported as 0%.

Regarding “771749 (antisense eG*eA*eA*eA*eT*dG*dG*dA*dG*dT*dT*dA*d[5mC]*dT*dT*eG*eT*eT*eA*eA) [compound 771749]”, under setting [4], the “% inhibition of SMAD7 mRNA expression” value turned out to be 29%. For the substance “771750 (antisense eG*eG*eA*e[5mC]*eA*dA*d[5mC]*dT*dT*dT*dT*d[5mC]*dA*dA*dG*eA*eA*e[5mC]*eT*e[5mC]) [compound 771750]”, under setting [1], the “% Inhibition” value is on record as 29%. On the same count and under the same terms, the same measure for “771751 (antisense eT*eG*eG*e[5mC]*e[5mC]*dA*dT*dG*d[5mC]*dT*dG*dG*d[5mC]*dA*dA*eA*eT*eA*eG*eG) [compound 771751]”: 25%.

For the substance “771752 (antisense eA*eA*eT*eG*eT*d[5mC]*d[5mC]*d[5mC]*dT*dG*dT*dG*dG*dG*dT*eT*eT*e[5mC]*e[5mC]*eA) [compound 771752]”, under setting [1], the “% Inhibition of SMAD7 mRNA” value worked out at 3%. Under setting [2], the “% inhibition of SMAD7 mRNA expression” value is reported as 0%. As for “771753 (antisense eG*eT*e[5mC]*e[5mC]*eA*dT*dG*dA*dA*d[5mC]*d[5mC]*dA*d[5mC]*dA*dA*e[5mC]*eT*e[5mC]*eA*eT) [compound 771753]”, the “% inhibition of SMAD7 mRNA expression” value under setting [2] is 50%.

In the case of “771754 (antisense e[5mC]*e[5mC]*e[5mC]*eT*e[5mC]*dA*dG*dG*dT*dA*d[5mC]*dT*d[5mC]*dT*dG*e[5mC]*eA*e[5mC]*eA*eG) [compound 771754]”, the “% inhibition of SMAD7 mRNA expression” value under setting [2] came out at 45%.

Take “771755 (antisense eA*eA*eA*e[5mC]*eA*dT*dT*dT*dG*dG*d[5mC]*dA*d[5mC]*d[5mC]*d[5mC]*eA*eA*e[5mC]*eA*e[5mC]) [compound 771755]”: under setting [1], the “% Inhibition” value was 35%. For the same substance, the “% inhibition of SMAD7 mRNA expression” value under setting [3] is reported as 44%. “771756 (antisense e[5mC]*e[5mC]*eA*eG*eG*d[5mC]*dA*dA*d[5mC]*d[5mC]*d[5mC]*d[5mC]*dA*dG*dA*e[5mC]*e[5mC]*eT*eG*e[5mC]) [compound 771756]”: under setting [1], the “% Inhibition” value was 11%. In the case of “771757 (antisense eT*e[5mC]*e[5mC]*e[5mC]*e[5mC]*dT*dT*dT*dT*dT*dT*dA*dA*dT*dT*eG*eA*eG*eG*eA) [compound 771757]”, the “% inhibition of SMAD7 mRNA expression” value under setting [4] is 48%. Regarding “771758 (antisense eA*eT*eT*eA*e[5mC]*d[5mC]*dA*dG*dT*d[5mC]*d[5mC]*d[5mC]*d[5mC]*d[5mC]*dA*eT*eT*eA*e[5mC]*eG) [compound 771758]”, the “% Inhibition” value under setting [1] is 0%.

Turning to “771759 (antisense eG*e[5mC]*eA*eT*eT*dA*d[5mC]*d[5mC]*dA*dG*dT*d[5mC]*d[5mC]*d[5mC]*d[5mC]*e[5mC]*eA*eT*eT*eA) [compound 771759]”, the “% Inhibition” value under setting [1] amounted to 26%. With “771760 (antisense eA*eT*e[5mC]*eT*eT*dA*d[5mC]*d[5mC]*dT*dG*dA*dA*dA*dG*d[5mC]*e[5mC]*e[5mC]*e[5mC]*e[5mC]*e[5mC]) [compound 771760]”, the “% Inhibition of SMAD7 mRNA” value under setting [1] is recorded as 25%. Under setting [2], the “% inhibition of SMAD7 mRNA expression” value was 3%. On to “771761 (antisense e[5mC]*e[5mC]*e[5mC]*e[5mC]*eA*dT*dT*d[5mC]*d[5mC]*dT*d[5mC]*d[5mC]*dA*dG*dT*e[5mC]*eT*eT*eT*eA) [compound 771761]”, for which the “% inhibition of SMAD7 mRNA expression” value under setting [2] came to 33%. On to “771763 (antisense e[5mC]*e[5mC]*e[5mC]*e[5mC]*eG*dT*d[5mC]*d[5mC]*dA*d[5mC]*dG*dG*dA*dA*d[5mC]*eG*eG*eA*eT*e[5mC]) [compound 771763]”, for which the “% Inhibition” value under setting [1] was 45%. Further, the “% inhibition of SMAD7 mRNA expression” value under setting [3] came to 34%. Regarding “771764 (antisense eA*e[5mC]*eA*e[5mC]*eT*dT*d[5mC]*dA*d[5mC]*dA*d[5mC]*dA*d[5mC]*d[5mC]*dA*eA*eA*eG*e[5mC]*eA) [compound 771764]”, the “% Inhibition” value under setting [1] is given as 20%. Regarding “771765 (antisense e[5mC]*e[5mC]*eA*eA*eG*d[5mC]*d[5mC]*dA*dG*dG*dA*dG*d[5mC]*dT*dG*e[5mC]*eT*eT*eA*eA) [compound 771765]”, the “% inhibition of SMAD7 mRNA expression” value under setting [4] came to 48%.

As for “771766 (antisense e[5mC]*eT*eG*eA*eA*dG*d[5mC]*d[5mC]*d[5mC]*d[5mC]*d[5mC]*d[5mC]*dA*dA*dG*e[5mC]*e[5mC]*eA*eG*eG) [compound 771766]”, the “% Inhibition” value under setting [1] is reported as 5%.

For the substance “771767 (antisense e[5mC]*e[5mC]*eT*eA*eA*dA*dG*dG*dT*dG*dG*dG*dT*d[5mC]*d[5mC]*eA*eT*eT*e[5mC]*e[5mC]) [compound 771767]”, under setting [1], the “% Inhibition” value stood at 16%. Regarding “771768 (antisense eG*eT*eA*eT*eG*d[5mC]*dT*dT*dG*dG*dG*dA*dT*d[5mC]*dT*eG*eT*e[5mC]*eT*eT) [compound 771768]”, the “% Inhibition of SMAD7 mRNA” value under setting [1] was determined as 24%. For the same substance, the “% inhibition of SMAD7 mRNA expression” value under setting [2] is reported as 11%. Regarding “771771 (antisense e[5mC]*eA*eG*e[5mC]*eT*d[5mC]*d[5mC]*dT*dA*d[5mC]*dT*dG*dT*dT*dG*eG*e[5mC]*eA*eG*eT) [compound 771771]”, the “% Inhibition” value under setting [1] was 22%. For the same substance, under setting [3], the “% inhibition of SMAD7 mRNA expression” value is 63%. As to “771772 (antisense eT*e[5mC]*e[5mC]*eT*e[5mC]*dA*dG*dG*dA*dA*d[5mC]*dA*dA*d[5mC]*dA*eA*eT*eG*e[5mC]*eT) [compound 771772]”, under setting [1], the “% Inhibition” value was 27%.
